Data from patent US9067977B2, “Peptides derivatized with A-B-C-D- and their therapeutical use” (Novo Nordisk A/S, priority 2007, dated 2015).
pEC50: −log10 of the molar value. Starred links: 1 amine or outer side, 2 acyl side, 3 side chain; linkers in the order of their positions; H or OH if unused. Residues, ends and D or L forms follow the SMILES beside them. Groups on a side chain read outwards from the residue. *: point of attachment. C20 diacid = O=C(O)CCCCCCCCCCCCCCCCCCC(=O)*; γGlu = O=C(O)[C@H](CCC(=O)[*:2])N[*:1]; Desaminohistidyl = O=C(CCc1c[nH]cn1)*; Inp = O=C(O)C1CCNCC1

Legend:
[1] = target: T1, human serum albumin (HSA) (Homo sapiens, UniProt P02768); test: in vitro; conditions: pH 7.4
Procedure: (§1) Streptavidin-SPA beads (GE Healthcare RPNQ0009) were incubated with biotinylated HSA for 5 hours. The beads were washed with buffer to remove unbound HSA. […] After 20 hours of gentle rocking at room temperature the plates were centrifuged and counted on a TopCounter.

[2] = target: T1, human serum albumin (HSA); test: Albumin binding affinity, competition scintillation proximity assay
Procedure: as §1

T1 sequence (P02768 25-609): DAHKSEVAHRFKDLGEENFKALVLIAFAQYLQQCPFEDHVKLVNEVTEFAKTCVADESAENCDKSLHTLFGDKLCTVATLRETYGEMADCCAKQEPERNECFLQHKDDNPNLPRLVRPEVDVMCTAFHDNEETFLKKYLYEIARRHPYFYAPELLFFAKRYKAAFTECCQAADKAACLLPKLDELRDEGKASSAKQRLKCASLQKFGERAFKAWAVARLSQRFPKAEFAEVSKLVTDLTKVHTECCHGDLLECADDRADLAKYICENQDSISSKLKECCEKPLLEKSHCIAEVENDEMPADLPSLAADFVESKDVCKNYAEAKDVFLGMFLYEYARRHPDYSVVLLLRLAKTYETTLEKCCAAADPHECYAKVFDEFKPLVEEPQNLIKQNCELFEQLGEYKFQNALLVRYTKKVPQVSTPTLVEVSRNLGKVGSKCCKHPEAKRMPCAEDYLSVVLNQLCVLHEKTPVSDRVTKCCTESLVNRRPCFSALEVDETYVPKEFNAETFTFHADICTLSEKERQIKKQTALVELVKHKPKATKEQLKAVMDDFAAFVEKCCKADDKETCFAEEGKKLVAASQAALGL

Row | EC50 at 20 h [1] | pEC50 [2] | SMILES | further results
1 | 1 to 100 nM |  | CC[C@H](C)[C@H](NC(=O)[C@H](Cc1ccccc1)NC(=O)[C@H](CCC(=O)O)NC(=O)[C@H](CCCCNC(=O)COCCOCCNC(=O)CC[C@H](NC(=O)CC[C@H](NC(=O)CCCCCCCCCCCNC(=O)CCCS(=O)(=O)NC(=O)CCCCCCCCCCCCCCCc1nnn[nH]1)C(=O)O)C(=O)O)NC(=O)[C@H](C)NC(=O)[C@H](C)NC(=O)[C@H](CCC(N)=O)NC(=O)CNC(=O)[C@H](CCC(=O)O)NC(=O)[C@H](CC(C)C)NC(=O)[C@H](Cc1ccc(O)cc1)NC(=O)[C@H](CO)NC(=O)[C@H](CO)NC(=O)[C@@H](NC(=O)[C@H](CC(=O)O)NC(=O)[C@H](CO)NC(=O)[C@@H](NC(=O)[C@H](Cc1ccccc1)NC(=O)[C@@H](NC(=O)CNC(=O)[C@H](CCC(=O)O)NC(=O)C(C)(C)NC(=O)[C@@H](N)Cc1c[nH]cn1)[C@@H](C)O)[C@@H](C)O)C(C)C)C(=O)N[C@@H](C)C(=O)N[C@@H](Cc1c[nH]c2ccccc12)C(=O)N[C@@H](CC(C)C)C(=O)N[C@H](C(=O)N[C@@H](CCCNC(=N)N)C(=O)NCC(=O)O)C(C)C [Example 39, N-epsilon26-[2-(2-{2-[(S)-4-Carboxy-4-((S)-4-carboxy-4-{12-[4-(16-(1H-tetrazol-5-yl)hexadecanoylsulfamoyl)butyrylamino]dodecanoylamino}butyrylamino)butyrylamino]ethoxy}ethoxy)acetyl][Aib8,Arg34]GLP-1-(7-35)] | 
2 |  |  | CC[C@H](C)[C@H](NC(=O)[C@H](Cc1ccccc1)NC(=O)[C@H](CCC(=O)O)NC(=O)[C@H](CCCCNC(=O)COCCOCCNC(=O)CC[C@H](NC(=O)CC[C@H](NC(=O)CCCCCCCCCCCNC(=O)CCCS(=O)(=O)NC(=O)CCCCCCCCCCCCCCCc1nnn[nH]1)C(=O)O)C(=O)O)NC(=O)[C@H](C)NC(=O)[C@H](C)NC(=O)[C@H](CCC(N)=O)NC(=O)CNC(=O)[C@H](CCC(=O)O)NC(=O)[C@H](CC(C)C)NC(=O)[C@H](Cc1ccc(O)cc1)NC(=O)[C@H](CO)NC(=O)[C@H](CO)NC(=O)[C@@H](NC(=O)[C@H](CC(=O)O)NC(=O)[C@H](CO)NC(=O)[C@@H](NC(=O)[C@H](Cc1ccccc1)NC(=O)[C@@H](NC(=O)CNC(=O)[C@H](CCC(=O)O)NC(=O)C(C)(C)NC(=O)[C@@H](N)Cc1c[nH]cn1)[C@@H](C)O)[C@@H](C)O)C(C)C)C(=O)N[C@@H](C)C(=O)N[C@@H](Cc1c[nH]c2ccccc12)C(=O)N[C@@H](CC(C)C)C(=O)N[C@@H](CCCCN)C(=O)NCC(=O)O [Example 43, N-epsilon26-[2-(2-{2-[(S)-4-Carboxy-4-((S)-4-carboxy-4-{12-[4-(16-(1H-tetrazol-5-yl)hexadecanoylsulfamoyl)butyrylamino]dodecanoylamino}butyrylamino)butyrylamino]ethoxy}ethoxy)acetyl][Aib8,Lys33,Arg34]GLP-1-(7-34)] | pEC50 [1]: 7.00 to 9.00
3 | 150 to 300 nM |  | CC[C@H](C)[C@H](NC(=O)[C@H](Cc1ccccc1)NC(=O)[C@H](CCC(=O)O)NC(=O)[C@H](CCCCNC(=O)COCCOCCNC(=O)CC[C@H](NC(=O)CC[C@H](NC(=O)CCCCCNC(=O)CCCS(=O)(=O)NC(=O)CCCCCCCCCCCCCCCc1nnn[nH]1)C(=O)O)C(=O)O)NC(=O)[C@H](C)NC(=O)[C@H](C)NC(=O)[C@H](CCC(N)=O)NC(=O)CNC(=O)[C@H](CCC(=O)O)NC(=O)[C@H](CC(C)C)NC(=O)[C@H](Cc1ccc(O)cc1)NC(=O)[C@H](CO)NC(=O)[C@H](CO)NC(=O)[C@@H](NC(=O)[C@H](CC(=O)O)NC(=O)[C@H](CO)NC(=O)[C@@H](NC(=O)[C@H](Cc1ccccc1)NC(=O)[C@@H](NC(=O)CNC(=O)[C@H](CCC(=O)O)NC(=O)C(C)(C)NC(=O)[C@@H](N)Cc1c[nH]cn1)[C@@H](C)O)[C@@H](C)O)C(C)C)C(=O)N[C@@H](C)C(=O)N[C@@H](Cc1c[nH]c2ccccc12)C(=O)N[C@@H](CC(C)C)C(=O)N[C@H](C(=O)N[C@@H](CCCNC(=N)N)C(=O)NCC(=O)O)C(C)C [Example 40, N-epsilon26-[2-(2-{2-[(S)-4-Carboxy-4-((S)-4-carboxy-4-{6-[4-(16-(1H-tetrazol-5-yl)hexadecanoylsulfamoyl)butyrylamino]hexanoylamino}butyrylamino)butyrylamino]ethoxy}ethoxy)acetyl][Aib8,Arg34]GLP-1-(7-35)] | 
4 |  | 6.10 to 6.52 | CC[C@H](C)[C@H](NC(=O)[C@H](Cc1ccccc1)NC(=O)[C@H](CCC(=O)O)NC(=O)[C@H](CCCNC(=N)N)NC(=O)[C@H](C)NC(=O)[C@H](C)NC(=O)[C@H](CCC(N)=O)NC(=O)[C@H](CCC(=O)O)NC(=O)[C@H](CCC(=O)O)NC(=O)[C@H](CC(C)C)NC(=O)[C@H](Cc1ccc(O)cc1)NC(=O)[C@H](CO)NC(=O)[C@H](CO)NC(=O)[C@@H](NC(=O)[C@H](CC(=O)O)NC(=O)[C@H](CO)NC(=O)[C@@H](NC(=O)[C@H](Cc1ccccc1)NC(=O)[C@@H](NC(=O)CNC(=O)[C@H](CCC(=O)O)NC(=O)[C@H](C)NC(=O)CCc1c[nH]cn1)[C@@H](C)O)[C@@H](C)O)C(C)C)C(=O)N[C@@H](C)C(=O)N[C@@H](Cc1c[nH]c2ccccc12)C(=O)N[C@@H](CC(C)C)C(=O)N[C@H](C(=O)N[C@@H](CCCNC(=N)N)C(=O)NCC(=O)N[C@@H](CCCNC(=N)N)C(=O)NCC(=O)N[C@@H](CCCCNC(=O)CC[C@H](NC(=O)C1CCN(C(=O)CCCCCCCCCCCCCCCCCCC(=O)O)CC1)C(=O)O)C(=O)O)C(C)C [Example 62, [DesaminoHis7,Glu22,Arg26,34]-GLP-1 (7-37)-Lys-((S)-4-Carboxy-4-{[1-(19-carboxy-nonadecanoyl)-piperidine-4-carbonyl]-amino}-butyryl) peptide] (Desaminohistidyl-AEGTFTSDVSSYLEEQAAREFIAWLVRGRGK([γGlu-Inp-C20 diacid])-OH) | 
5 |  |  | CC[C@H](C)[C@H](NC(=O)[C@H](Cc1ccccc1)NC(=O)[C@H](CCC(=O)O)NC(=O)[C@H](CCCNC(=N)N)NC(=O)[C@H](C)NC(=O)[C@H](C)NC(=O)[C@H](CCC(N)=O)NC(=O)[C@H](CCC(=O)O)NC(=O)[C@H](CCC(=O)O)NC(=O)[C@H](CC(C)C)NC(=O)[C@H](Cc1ccc(O)cc1)NC(=O)[C@H](CO)NC(=O)[C@H](CO)NC(=O)[C@@H](NC(=O)[C@H](CC(=O)O)NC(=O)[C@H](CO)NC(=O)[C@@H](NC(=O)[C@H](Cc1ccccc1)NC(=O)[C@@H](NC(=O)CNC(=O)[C@H](CCC(=O)O)NC(=O)[C@H](C)NC(=O)Cc1c[nH]cn1)[C@@H](C)O)[C@@H](C)O)C(C)C)C(=O)N[C@@H](C)C(=O)N[C@@H](Cc1c[nH]c2ccccc12)C(=O)N[C@@H](CC(C)C)C(=O)N[C@H](C(=O)N[C@@H](CCCNC(=N)N)C(=O)NCC(=O)N[C@@H](CCCNC(=N)N)C(=O)N[C@@H](CCCCNC(=O)COCCOCCNC(=O)COCCOCCNC(=O)CC[C@H](NC(=O)[C@H]1CC[C@H](CNC(=O)CCCCCCCCCCCCCCCCCCC(=O)O)CC1)C(=O)O)C(=O)O)C(C)C [Example 54, N-alpha8-[2-(4-imidazolyl)acetyl] N-epsilon37-[2-(2-{2-[2-(2-{2-[(S)-4-Carboxy-4-({trans-4-[(19-carboxynonadecanoylamino)methyl]cyclohexanecarbonyl}amino)butyrylamino]ethoxy}ethoxy)acetylamino]ethoxy}ethoxy)acetyl][Glu22,Arg26,Arg34,Lys37]GLP-1-(8-37)] | EC50 at 20 h ([2]; human, pH 7.4): 150 to 300 nM
6 |  | 6.52 to 6.82 | CC[C@H](C)[C@H](NC(=O)[C@H](Cc1ccccc1)NC(=O)[C@H](CCC(=O)O)NC(=O)[C@H](CCCCNC(=O)COCCOCCNC(=O)CC[C@H](NC(=O)CC[C@H](NC(=O)CCCCCNC(=O)CCCS(=O)(=O)NC(=O)CCCCCCCCCCCCCCCc1nnn[nH]1)C(=O)O)C(=O)O)NC(=O)[C@H](C)NC(=O)[C@H](C)NC(=O)[C@H](CCC(N)=O)NC(=O)CNC(=O)[C@H](CCC(=O)O)NC(=O)[C@H](CC(C)C)NC(=O)[C@H](Cc1ccc(O)cc1)NC(=O)[C@H](CO)NC(=O)[C@H](CO)NC(=O)[C@@H](NC(=O)[C@H](CC(=O)O)NC(=O)[C@H](CO)NC(=O)[C@@H](NC(=O)[C@H](Cc1ccccc1)NC(=O)[C@@H](NC(=O)CNC(=O)[C@H](CCC(=O)O)NC(=O)C(C)(C)NC(=O)[C@@H](N)Cc1c[nH]cn1)[C@@H](C)O)[C@@H](C)O)C(C)C)C(=O)N[C@@H](C)C(=O)N[C@@H](Cc1c[nH]c2ccccc12)C(=O)N[C@@H](CC(C)C)C(=O)N[C@H](C(=O)N[C@@H](CCCNC(=N)N)C(=O)NCC(=O)N[C@@H](CCCNC(=N)N)C(N)=O)C(C)C [Example 41, N-epsilon26-[2-(2-{2-[(S)-4-Carboxy-4-((S)-4-carboxy-4-{6-[4-(16-(1H-tetrazol-5-yl)hexadecanoylsulfamoyl)butyrylamino]hexanoylamino}butyrylamino)butyrylamino]ethoxy}ethoxy)acetyl][Aib8,Arg34]GLP-1-(7-36)amide] | 
